The text below walks through data of US20090286738A1, “Gene Regulation” (ST. GEORGE'S ENTERPRISES LIMITED, priority 2005, published 2009).

Entries after “also recorded” stand apart in the source; their conditions may differ.

Data set [1] concerns malignant cell lines (B16 mouse melanoma, LNCAP human prostate cancer, K562). The note with it: time scale in which HXP4 shows an effect; cited from earlier work.
A short description of data set [2]: Stability of peptides in human plasma at 37° C., SDS-PAGE. Particulars: 1 mM peptide. In kind it is in vitro ADME. As for the experimental part: Peptides were incubated in human serum for the times shown and then visualised on a Coomassie brilliant blue stained gel. The arrow heads indicate the position of intact peptide. Standard=peptide only in this lane as a marker.
The stability of HXArg9(2D) and CX2Arg9(2D) was assessed by incubation each with human plasma at 37° C. and the amount of peptide remaining after different amounts of time was assessed by SDS-PAGE. Each peptide was added to freshly prepared human plasma to a final concentration of 1 mM in a total volume of 40 μl. Samples were incubated at 37° C. and reactions were stopped by adding 60 μl of water and 0.9 ml of protein gel loading buffer (BioRad, USA) containing 1% 2-mercaptoethanol, and heating to 95° C. for four minutes. 2 μl of each sample was run on a 22% acrylamide gel. […] This compared with a half life of approximately 40 minutes for the L isomer form HXArg9.

Data set [3] concerns A498 (Human renal cancer). The format is cell-based. The source says: (§1) FIG. 5(a): MTT assays to determine the IC50 of the control and hexapeptide-containing peptides.
(§2) These include prostate (Miller, G. J. et al. Cancer Res. 63, 5879-5888 (2003)), renal (Cillo, C. et al. Int. J. Cancer. 51, 892-897 (1992)), bladder (Cantile, M., et al. Oncogene 22, 6462-6468 (2003)), lung (Abe, M. et al. Oncol. Rep. 15, 797-802 (2006)) and ovarian (Cheng, W., et al. Nat. Med. 11, 531-537 (2005)) cancer. In order to determine whether HXArg9 could also block the growth of cells derived from these cancers, we obtained the IC50 using an MTT assay for representative cell lines of each (Table 1).

Data set [4] concerns A549 (Human non-small cell lung carcinoma). In kind it is cell-based.
Source text: as §1, §2

The subject of data set [5] is B16F10 (Mouse melanoma). In kind it is cell-based.
Source text: as §1, §2

Data set [6] relates to J82 (Human bladder cancer). The format is cell-based.
Source text: as §1, §2

Data set [7] deals with LNCaP (Human prostate cancer). In kind it is cell-based.
Source text: as §1, §2

Data set [8] has as its system SK-OV3 (Human ovarian cancer). In kind it is cell-based.
Source text: as §1, §2

Data set [9] deals with malignant cell lines (B16 mouse melanoma, LNCAP human prostate cancer, K562). As to the kind of experiment: Activity of peptides on different malignant cell lines, living and dead cells after 3 hours (FIGS. 6 to 8). In kind it is cell-based. The note with it: for effect on living/dead cells, cell proliferation: 60 μM or 6 μM, 3 hour exposures, melanoma, prostate cancer and leukaemia cells. As for the experimental part: (§3) The peptides as indicated were applied to the cells at a concentration of 60 μM (FIG. 6A) or 6 μM (FIG. 6B). In both experiments the HXArg9, CX1Arg9 and CX2Arg9 peptides used were the (2D) variant peptides in which the N- and C-terminal amino acids are in the D conformation and all remaining amino acids are in the L conformation. The number of living and dead cells were assessed after 3 hours. Black bars=% or number of cells dead. White bars=% or number of cells alive.
The peptides as indicated were applied to the cells at a concentration of 60 μM (FIG. 7A) or 6 μM (FIG. 7B). In both experiments the HXArg9, CX1Arg9 and CX2Arg9 peptides used were the (2D) variant peptides in which the N- and C-terminal amino acids are in the D conformation and all remaining amino acids are in the L conformation. The number of living and dead cells were assessed after 3 hours. Black bars=% or number of cells dead. White bars=% or number of cells alive.
as §3, with “μM. HXArg9(2D) is” for “μM (FIG. 6A) or 6 μM (FIG. 6B). In both experiments”, “variant form of HXArg9 in which the N-terminal and C-terminal amino acids are in the D conformation and the remaining amino acids are in the L conformation. HXArg9 consists of only L-conformation amino acids. The” for “HXArg9,”, “bars=%” for “bars=% or number of”
(§4) Cell lines were seeded at 4×10^4 cells/ml in liquid culture system made of RPMI-1640 medium (Life Technologies, UK) supplemented with Foetal Calf Serum (10% Sigma Aldrich) and penicillin/streptomycin (1%, Sigma) and at least in duplicate. When required the test peptide was added to the medium. Cell lines were cultured for up to 7 days at 37° C., 5% CO2 in humidified atmosphere. Cultured cells were then assessed for cell viability/enumeration using trypan blue exclusion (Sigma Aldrich).
The activity of the peptides described above was tested on a number of different malignant cell lines using a similar assay to that described previously.

Data set [10] concerns B16 murine melanoma cells. Kind of data set: B16 cell growth over a 4 day period (FIGS. 2B, 3). In kind it is cell-based. Particulars: 200 μg/ml for 4 hours, counted day 4. The method, then: In FIG. 2B the peptides as indicated were applied to the cells at a concentration of 200 μg/ml for 4 hours. The number of cells present was assessed on the day of treatment (white bars) and on day 4 (diagonal stripes).
A=untreated; B=CXP4; C=HXP4; D=HXP4(3D)2; E=HXP4(3D)3; F=HXP4(3D)4.
as §4

The test system of data set [11] is B16 cells. Kind of data set: Apoptosis of B16 cells (microscopy, Hoechst, Annexin V FACS). In kind it is cell-based, murine. The note with it: in combination with HXArg9(2D). The method, then:
FIG. 5(b): Light micrographs of B16 cells treated with 60 μM HXArg9(2D) (HXR9) or CX2Arg9(2D) (CXR9) for two hours. Scale bar=40 μm.
FIG. 5(c) Transmission electron micrographs of B16 cells treated with 60 μM HXR9 or CXR9 for two hours. Scale bar=[…].
FIG. 5(d) FACS sorting of B16 cells with Annexin. Cells were treated as indicated above each plot. The lower left hand quadrant represents normal, viable cells. The bottom and top right hand quadrants represent cells in early and late apoptosis, respectively, and the top left hand quadrant represents cells in necrosis.
Apoptotic morphology was determined using scanning electron microscopy and fluorescence microscopy. Changes in nuclear morphology were assessed by fixing B-16 cytospins with ice-cold methanol at room temperature for five minutes. The fixed cells were stained with Hoechst 33258 (2 μg/ml) (Sigma) and mounted using VECTASHIELD® mounting medium (Vector) and analyzed by fluorescence microscopy (Nikon Eclipse TE 2000-S).
An additional sign of apoptosis is the appearance of phosphatidylserine in the cell membrane (Koopman, G. et al. Blood 84, 1415-1420 (1994)). This can be detected by fluorescencently labeled Annexin V protein and cell sorting using FACS.
This is a specific inhibitor of the caspase proteases, which are key components of the apotopic pathway (Zhu, H., et al. FEBS Lett. 374, 303-308 (1995)).

The test system of data set [12] is B16 murine melanoma cells. Kind of data set: Living and dead B16 cells after 3 hours (FIGS. 2A, 9). The format is cell-based. The note with it: B16 cells, FIGS. 2 and 3. The method, then:
In FIG. 2A the peptides as indicated were applied to the cells at a concentration of 60 μM. The number of living and dead cells were assessed after 3 hours. Black bars=number of cells dead. White bars=number of cells alive.
as §3
The HXArg9 peptide used was the (2D) variant peptide in which the N- and C-terminal amino acids are in the D conformation and all remaining amino acids are in the L conformation. HXArg9 was applied to the cells at a variety of concentrations (μM), and the number of dead and living cells was assessed after 3 hours. Black bars=% cells dead. White bars=% cells alive.
as §4

Take WCPWLDRHGRQIKIWFQNRRMKWKK [CXP4]: the “effect in a similar assay, previously shown” value in data set [1] is reported as “ineffective”.
Consider `CSCC[C@@H](N)C(=O)N[C@@H](CS)C(=O)N[C@@H](C)C(=O)N[C@@H](C)C(=O)NCC(=O)N[C@@H](CC(=O)O)C(=O)N[C@@H](CC(=O)O)C(=O)N[C@@H](C)C(=O)N[C@@H](CC(C)C)C(=O)N[C@@H](CCCNC(=N)N)C(=O)N[C@@H](CCCNC(=N)N)C(=O)N[C@@H](CCCNC(=N)N)C(=O)N[C@@H](CCCNC(=N)N)C(=O)N[C@@H](CCCNC(=N)N)C(=O)N[C@@H](CCCNC(=N)N)C(=O)N[C@@H](CCCNC(=N)N)C(=O)N[C@@H](CCCNC(=N)N)C(=O)N[C@H](CCCNC(=N)N)C(=O)O` [CX2Arg9(2D), MCAAGDDALRRRRRRRRR, reference compound], for which, in data set [2], the half-life at 1 mM was around 12 h. In addition, the IC50 was 280 µM in [3]; 240 µM in [4]; 200 µM in data set [5]; 290 µM in data set [6]; 220 µM in [7]; 270 µM in data set [8].
For WYPWMKKHHRQIKIWFQNRRMKWKK [HXP4], the “effect on living/dead cells, cell proliferation” value (“effect on living/dead cells” below) in [9] is on record as “no effect”. For the same compound, the “time required to achieve the same response” value in data set [9] (compared with 3 hour exposures for HXArg9) was found to be 4 days. Besides, in [10], the “cell growth over a 4 day period” value was “significantly reduced cell growth”.
“WCPWLDRHGRRRRRRRRR [CX1Arg9, control peptide based on HXArg9 with amino acid substitutions]”: in data set [9], the “effect on living/dead cells” value is “some activity”.
In data set [2], `CSCC[C@H](NC(=O)[C@H](Cc1c[nH]c2ccccc12)NC(=O)[C@@H]1CCCN1C(=O)[C@H](Cc1ccc(O)cc1)NC(=O)[C@H](N)Cc1c[nH]c2ccccc12)C(=O)N[C@@H](CCCCN)C(=O)N[C@@H](CCCCN)C(=O)N[C@@H](Cc1c[nH]cn1)C(=O)N[C@@H](Cc1c[nH]cn1)C(=O)N[C@@H](CCCNC(=N)N)C(=O)N[C@@H](CCCNC(=N)N)C(=O)N[C@@H](CCCNC(=N)N)C(=O)N[C@@H](CCCNC(=N)N)C(=O)N[C@@H](CCCNC(=N)N)C(=O)N[C@@H](CCCNC(=N)N)C(=O)N[C@@H](CCCNC(=N)N)C(=O)N[C@@H](CCCNC(=N)N)C(=O)N[C@H](CCCNC(=N)N)C(=O)O` [HXArg9(2D), WYPWMKKHHRRRRRRRRR] showed a half-life at 1 mM of around 12 h. The IC50 in [3] turned out to be 24 µM; in data set [4] it was 19 µM; in data set [5] it was 20 µM; in data set [6], 22 µM; in [7], 21 µM; in data set [8], 22 µM.
Regarding “MCAAGDDALRRRRRRRRR [CX2Arg9, more extensively changed version of the control peptide CX1Arg9, reference compound]”, the “effect on living/dead cells” value in data set [9] is given as “no effect on cell proliferation”.
In the case of Z-VAD, the “cell death / apoptosis on co-treatment with HXArg9(2D)” value in data set [11] is “significant reduction in cell death; also recorded: significant reduction in the number of cells undergoing apoptosis”.
With WYPWMKKHHRQIKIWFQNRRMKWKK [HXP4(3D)1], in data set [12], the “activity of D-isomer variants of HXP4” value was “slightly higher activity than the other 3D isomers”.

As usually defined, the half-life is the time needed for the level to fall by half in the phase considered. High values mean slow loss, low ones fast loss. A word on the IC50: it is the concentration that gives 50% inhibition.
